In ChEMBL document CHEMBL3244110, “Synthesis and biological evaluation of some 2-amino-4-aryl-3H-1,5-benzodiazepine analogues of clozapine” (J Med Chem, 1978):
Calls of active or inactive are those of the source. The rule behind the calls is not given here.

Columns and labels:
[1] = tested on: Mus musculus; assay: Antipsychotic activity in mouse assessed as protection against amphetamine-induced lethality at 5 mg/kg, ip treated 30 mins before amphetamine challenge; assay type: functional, organism-based; design: dose 5 mg/kg
[2] = tested on: Mus musculus; assay: Antipsychotic activity in mouse assessed as protection against amphetamine-induced lethality at 50 mg/kg, ip treated 30 mins before amphetamine challenge; assay type: functional, organism-based; design: dose 50 mg/kg
[3] = tested on: Rattus norvegicus; assay: Antipsychotic activity in 0.2 mA footshock-induced conditioned stimulus rat assessed as decrease in avoidance response at 5 mg/kg, ip after 30 mins; assay type: functional, organism-based; design: dose 5 mg/kg
[4] = tested on: Rattus norvegicus; assay: Antipsychotic activity in 0.2 mA footshock-induced conditioned stimulus rat assessed as decrease in avoidance response at 20 mg/kg, ip after 30 mins; assay type: functional, organism-based; design: dose 20 mg/kg
[5] = tested on: Mus musculus; assay: Antipsychotic activity in mouse assessed as increase in brain dopamine turnover at 25 to 30 mg/kg, ip pretreated with 200 mg/kg, ip alpha-methyl-p-tyrosine tyrosine hydroxylase inhibitor; assay type: functional, organism-based
[6] = biological target: Adenylate cyclase (Rattus norvegicus) (UniProt D4A3N4+P26770+Q04400+P26769+Q03343+P40146+Q8CFM9+P21932); assay: Inhibition of dopamine-sensitive rat brain adenylyl cyclase activity assessed as cAMP level at 10^-4 M
[7] = tested on: Mus musculus; assay: Toxicity in mouse assessed as depression at 50 mg/kg, ip; assay type: organism-based; design: dose 50 mg/kg, route intraperitoneal; conditions: in vivo
[8] = tested on: Mus musculus; assay: Toxicity in mouse assessed as ptosis at 50 mg/kg, ip; assay type: organism-based; design: dose 50 mg/kg, route intraperitoneal; conditions: in vivo
[9] = biological target: Adenylate cyclase; assay: Inhibition of dopamine-sensitive rat brain adenylyl cyclase activity assessed as cAMP level

| Compound | Activity [1] | Activity [2] | Activity [3] | Activity [4] | Activity [5] | inhibition [6] | Activity [7] | Activity [8] | IC50 [9] [nM] |
| --- | --- | --- | --- | --- | --- | --- | --- | --- | --- |
| c1ccc(C2=Nc3ccccc3N=C(N3CCC(N4CCCCC4)CC3)C2)cc1 | inactive | inactive | inactive | inactive | Active | inactive |  |  |  |
| Clc1ccc(C2=Nc3ccccc3N=C(N3CCC(c4ccccc4)CC3)C2)cc1 | inactive | inactive | inactive | inactive | inactive |  | Toxic | Toxic |  |
| Clc1ccc(C2=CCN(C3=Nc4ccccc4N=C(c4ccccc4)C3)CC2)cc1 | inactive | inactive | inactive | inactive | Active | inactive | Toxic | Toxic |  |
| CN(C)CCCN1c2ccccc2Sc2ccc(Cl)cc21 | Active | Active |  |  | Active |  |  |  |  |
| CN1CCN(C2=Nc3ccccc3N=C(c3ccc(Cl)cc3)C2)CC1 | inactive | inactive | inactive | inactive | inactive |  |  |  |  |
| Cc1ccc(C2=Nc3ccccc3N=C(N3CCN(C)CC3)C2)cc1 | inactive | inactive | inactive | inactive |  |  |  |  |  |
| COc1ccc(C2CCN(C3=Nc4ccccc4N=C(c4ccccc4)C3)CC2)cc1 | inactive | inactive | inactive | inactive | inactive | inactive |  |  |  |
| CN(CCO)C1=Nc2ccccc2N=C(c2ccccc2)C1 | inactive | inactive | inactive | inactive | inactive |  |  |  |  |
| C1=C(c2ccccc2)CCN(C2=Nc3ccccc3N=C(c3ccccc3)C2)C1 | inactive | inactive | inactive | inactive | inactive | inactive |  |  |  |
| c1ccc(C2=Nc3ccccc3N=C(N3CCCCC3)C2)cc1 | inactive | inactive | inactive | inactive | inactive |  |  |  |  |
| FC(F)(F)c1cccc(C2CCN(C3=Nc4ccccc4N=C(c4ccccc4)C3)CC2)c1 | inactive | inactive | inactive | inactive | inactive | inactive |  | Toxic |  |
| CN1CCN(C2=Nc3ccccc3N=C(c3ccccc3)C2)CC1 | inactive | inactive | inactive | inactive | Active | inactive | Toxic | Toxic |  |
| Clc1ccc2c(c1)N=C(N1CCC(c3ccccc3)CC1)CC(c1ccccc1)=N2 | inactive | inactive | inactive | inactive | inactive | inactive |  | Toxic |  |
| Cc1ccc(C2=Nc3ccccc3N=C(N3CCC(c4ccccc4)CC3)C2)cc1 | inactive | inactive | inactive | inactive | inactive |  |  |  |  |
| CN(C)C1=Nc2ccccc2N=C(c2ccccc2)C1 | inactive | inactive | inactive | inactive | inactive |  |  | Toxic |  |
| c1ccc(C2=Nc3ccccc3N=C(N3CCN(c4ccccc4)CC3)C2)cc1 | inactive | inactive | inactive | inactive | inactive |  |  |  |  |

| Compound | Activity [1] | Activity [2] | Activity [3] | Activity [4] | Activity [5] | inhibition [6] | Activity [7] | Activity [8] | IC50 [9] [nM] |
| --- | --- | --- | --- | --- | --- | --- | --- | --- | --- |
| c1ccc(C2=Nc3ccccc3N=C(N3CCCC3)C2)cc1 | inactive | inactive | inactive | inactive | inactive |  |  |  |  |
| FC(F)(F)c1ccc(C2=CCN(C3=Nc4ccccc4N=C(c4ccccc4)C3)CC2)cc1 | inactive | inactive | inactive | inactive | inactive | inactive |  |  |  |
| c1ccc(CC2CCN(C3=Nc4ccccc4N=C(c4ccccc4)C3)CC2)cc1 | Active | Active | inactive | inactive | inactive |  |  | Toxic |  |
| COc1ccc(C2=Nc3ccccc3N=C(N3CCC(c4ccccc4)CC3)C2)cc1 | inactive | inactive | inactive | inactive | inactive |  |  |  |  |
| COc1ccc(C2=Nc3ccccc3N=C(N3CCN(C)CC3)C2)cc1 | inactive | inactive | inactive | inactive |  |  |  |  |  |
| Butaclamol | Active | Active |  |  |  |  |  |  |  |
| FC(F)(F)c1ccc(C2CCN(C3=Nc4ccccc4N=C(c4ccccc4)C3)CC2)cc1 | Active | inactive | inactive | inactive | inactive | inactive | Toxic |  |  |
| Cc1cc2c(cc1C)N=C(N1CCC(c3ccccc3)CC1)CC(c1ccccc1)=N2 | inactive | inactive | inactive | inactive | inactive | inactive |  |  |  |
| O=C(CCCN1CCC(O)(c2ccc(Cl)cc2)CC1)c1ccc(F)cc1 [HALOPERIDOL] | Active | Active |  |  | Active |  |  |  | 2300 |
| CN1CCN(C2=Nc3cc(Cl)ccc3N=C(c3ccccc3)C2)CC1 | Active | inactive | inactive | inactive | inactive |  |  |  |  |
| c1ccc(C2=Nc3ccccc3N=C(N3CCOCC3)C2)cc1 | inactive | inactive | inactive | inactive | inactive |  |  |  |  |
| OCCN1CCN(CCCN2c3ccccc3Sc3ccc(C(F)(F)F)cc32)CC1 | Active | Active |  |  |  |  |  |  |  |
| CSc1ccc2c(c1)N(CCC1CCCCN1C)c1ccccc1S2 (stereo unspecified) |  |  |  |  | Active |  |  |  |  |
| c1ccc(C2=Nc3ccccc3N=C(N3CCC(C(c4ccccc4)c4ccccc4)CC3)C2)cc1 | inactive | Active | inactive | inactive | inactive |  |  | Toxic |  |
| Cc1cc2c(cc1C)N=C(N1CCN(C)CC1)CC(c1ccc(F)cc1)=N2 | inactive | inactive | inactive | inactive |  |  |  |  |  |
